Measurements published in patent publication US20020010210A1, “PHARMACEUTICAL PREPARATION AND METHOD FOR TREATING CANCER” (priority 1997, published 2002).

Experiments:
[1] = tested on: bovine aortic endothelial BAE-2 cells; assay: Intracellular ascorbic acid cumulative amount in BAE-2 cells (Example 2); type: cell-based; conditions: 5 μM in culturing medium, cultured 20 hours
Description: About 6×10^5 bovine aortic endothelial BAE-2 cells (available from Hiroshima Prefecture University) were sowed on a 60 mmφ plate and cultured in a minimum essential culturing medium containing 20% dialyzed bovine fetus serum (available from Moregate) for 2 hours. After displacing with the same culturing medium containing 5 μM (in the case of magnesium ascorbic acid-2-phosphate, 50 μM) of ascorbic acid or a derivative thereof, the cells were further cultured for 20 hours.

[2] = tested on: spontaneous breast cancer rat cells (SST-2); assay: Lung metastasis of implanted SST-2 cells in SHR rats (Example 3); type: in vivo; conditions: 35 days after implantation; for Number of Metastasis Colonies (average), Peroral Administration: 1 mg/rat perorally from day of implantation to day 34; for Number of Metastasis Colonies (average), Subcutaneous Injection: 1 mg/rat subcutaneous injection from day of implantation to day 34
Description: 1×100,000 spontaneous breast cancer rat cells (SST-2) were subcutaneously implanted into the back of a rat (SHR rat) (5 rats per group) suffering from spontaneous hypertension. After 35 days, the rats were sacrificed, and the lung weight and the number of colonies formed were measured to examine the degree of metastasis of SST-2 to the lung. The compounds shown in Tables 3 and 4 each was administered perorally or through subcutaneous injection in a dose of 1 mg/rat over the period from the day of implantation to 34 days after implantation. The number of colonies formed was compared with that in the control group not subjected to any treatment, to examine metastasis to the lung.

[3] = tested on: normal human adult mamma epidermis keratinocyte; assay: Intracellular ascorbic acid cumulative amount in keratinocytes (Example 1); type: cell-based; conditions: addition amount 2 μM, cultured 20 hours; difference to culture without addition
Description: About 6×10^5 cells of a normal human adult mamma epidermis keratinocyte (available from Kurashiki Boseki KK) were sowed on a 60 mm plate and cultured in a culturing medium (manufactured by Krashiki Boseki KK) for the increase of serum-free epidermis keratinocyte for 2 hours. After displacing with the same culturing medium having added thereto from 2 to 50 μM of ascorbic acid or a derivative thereof, the cells were further cultured for 20 hours. The cells were collected by trypsin treatment and the number of cells was counted using a Coulter Counter Model DN (trade name, manufactured by Coulter Electronics). The cells thus collected were washed with Hank's equilibrium salt solution, pulverized in an ultrasonic homgenizer, filtered through a Mol-cut II (UFP1LCC) (trade name, produced by Nippon Milipore KK), analyzed by HPLC using Shodex ODSpak F411A column (trade name, produced by Showa Denko KK), and the amount of ascorbic acid and derivatives thereof were measured to determine the intracellular cumulative amount.
As a control, culturing was performed in the same manner as above except for not adding ascorbic acid or a derivative thereof, and the amount of intracellular ascorbic acid was quantitatively determined.

Molecule | Intracellular Cumulative Amount [1] | Number of Metastasis Colonies (average), Peroral Administration [2] | Number of Metastasis Colonies (average), Subcutaneous Injection [2] | Intracellular Cumulative Amount [3]
O=C1O[C@H]([C@@H](O)CO)C(O)=C1OC1O[C@H](CO)[C@@H](O)[C@H](O)[C@H]1O (stereo partly drawn) [2-O-D-Glucopyranosil-L-ascorbic acid] | <0.0003 Pmole/cell | 87.2 | 90.6 | 
CC(CCC(C(=O)OC1=C(O)C(=O)O[C@@H]1[C@@H]1COC(c2ccccc2)O1)C(C)CC(C)(C)C)CC(C)(C)C (some centres unmarked) [5,6-O-Benzylidene-3-O-[5,7,7-trimethyl-2-(1,3,3-timethylbutyl)]octanoylascorbic acid] | 0.0008 Pmole/cell | 87.4 | 89.6 | 
CCCCC/C=C\C/C=C\C/C=C\C/C=C\CCCC(=O)OC[C@H](O)[C@H]1OC(=O)C(OP(=O)(O)O)=C1O [L-Ascorbic acid 2-phosphate-6-arachidonate] | 0.0068 Pmole/cell | 31.4 | 1.2 | 
O=C1O[C@H]([C@@H](O)COC(=O)c2ccccc2)C(O)=C1OP(=O)(O)O [L-Ascorbic acid 2-phosphate-6-benzoate] | 0.0025 Pmole/cell | 80.0 | 64.4 | 
CCCCCCCCCCCC(=O)OC[C@H](O)[C@H]1OC(=O)C(OP(=O)(O)O)=C1O [L-Ascorbic acid 2-phosphate-6-laurate] | 0.0042 Pmole/cell | 48.0 | 26.8 | 
CCCCCCCC/C=C\CCCCCCCC(=O)OC[C@H](O)[C@H]1OC(=O)C(OP(=O)(O)O)=C1O [L-Ascorbic acid 2-phosphate-6-oleate] | 0.0055 Pmole/cell | 29.4 | 2.8 | 
CCCCCCCCCCCCCCCC(=O)OC[C@H](O)[C@H]1OC(=O)C(OP(=O)(O)O)=C1O [L-Ascorbic acid 2-phosphate-6-palmitate] | 0.0072 Pmole/cell | 34.2 | 2.4 | 
CCCCCCCCCCCCCCCCCC(=O)OC[C@H](O)[C@H]1OC(=O)C(OP(=O)(O)O)=C1O [L-Ascorbic acid 2-phosphate-6-stearate] | 0.0034 Pmole/cell | 14.2 | 8.2 | 
O=C1O[C@H]([C@@H]2COC(c3ccccc3)O2)C(O)=C1O (stereo partly drawn) [L-Ascorbic acid-5,6-O-benzylidene] | 0.0012 Pmole/cell | 85.8 | 84.2 | 
CCCCCCCCCCCCCCCC(=O)OC[C@H](O)[C@H]1OC(=O)C(O)=C1O [L-Ascorbic acid-6-palmitate] |  | 85.4 | 83.0 | 
O=C1O[C@H]([C@@H](O)CO)C(O)=C1O [L-Ascorbic acid] |  | 90.8 | 88.8 | 
O=C1O[C@H]([C@@H](O)CO)C(O)=C1OP(=O)([O-])[O-].[Mg+2] [Magnesium L-ascorbic acid-2-phosphate] |  | 89.4 | 86.8 | 
O=C1OC(C2COC(c3cccc([N+](=O)[O-])c3)O2)C([O-])=C1O.[Na+] [Sodium 5,6-(3-nitro)benzylidene-L-ascorbate] | 0.0007 Pmole/cell | 88.6 | 84.2 | 
O=C1O[C@H]([C@@H](O)CO)C(O)=C1OS(=O)(=O)[O-].[Na+] [Sodium L-ascorbic acid-2-sulfate] |  | 86.2 | 85.4 | 
Magnesium L-ascorbic acid 2-phosphate-6-laurate | 0.0070 Pmole/cell |  |  | 0.0033 Pmole/cell
Sodium L-ascorbic acid 2-phosphate-6-palmitate | 0.0068 Pmole/cell | 30.6 | 1.6 | 0.0040 Pmole/cell
